Reference: patent US20260285850A1, “SUBSTITUTED OXAZOLIDINONES AND IMIDAZOLINONES AS HERBICIDES” (FMC CORPORATION, priority 2023, published 2026)

How the values were obtained:
Type in all cases: in vivo
[1] = system: barnyardgrass (Echinochloa crusgalli); assay: Test B flooded paddy test, visual plant response rating 0-100; details: 250 g ai/ha, Flood, applied to paddy water, evaluated after 13 days
Method: (§1) Plant species in the flooded paddy test selected from barnyardgrass (Echinochloa crusgalli), ducksalad (Heteranthera limosa), rice (Oryza sativa), and sedge, umbrella (small-flower umbrella sedge, Cyperus difformis) were grown to the 2-leaf stage for testing. At time of treatment, test pots were flooded to 3 cm above the soil surface, treated by application of test compounds directly to the paddy water, and then maintained at that water depth for the duration of the test. Treated plants and controls were maintained in a greenhouse for 13 days, after which time all species were compared to controls and visually evaluated. […] A dash (-) response means no test result.

rice (Oryza sativa) = assay: as above; details: 250 g ai/ha, Flood, applied to paddy water, evaluated after 13 days
Method: as §1

[2] = system: ducksalad (Heteranthera limosa); assay: as above; details: 250 g ai/ha, Flood, applied to paddy water, evaluated after 13 days
Method: as §1

[3] = system: sedge, umbrella (small-flower umbrella sedge, Cyperus difformis); assay: as above; details: 250 g ai/ha, Flood, applied to paddy water, evaluated after 13 days
Method: as §1

corn (Zea mays) [4] = assay: Test A postemergence application, visual injury rating 0-100; details: 10 days
Text: (§2) Seeds of plant species selected from barnyardgrass (Echinochloa crus-galli), blackgrass (Alopecurus myosuroides), corn (Zea mays), foxtail, giant (giant foxtail, Setaria faberi), green foxtail (Setaria viridis), goosegrass (Eleusine indica), kochia (Bassia scoparia), oat, wild (wild oat, Avena fatua), palmer (palmer amaranth, palmer pigweed, Amaranthus palmeri), ragweed (common ragweed, Ambrosia artemisiifolia), ryegrass, Italian (italian ryegrass, Lolium multiflorum), soybean (Glycine max) and wheat (Triticum aestivum) were planted into a blend of loam soil and sand and treated preemergence with a directed soil spray using test chemicals formulated in a non-phytotoxic solvent mixture which included a surfactant.
(§3) At the same time, plants selected from these crops and weed species and also galium (catchweed bedstraw, Galium aparine) and horseweed (Erigeron canadensis) were planted in pots containing the same blend of loam soil and sand and treated with postemergence applications of test chemicals formulated in the same manner. Plants ranged in height from 2 to 10 cm and were in the one- to two-leaf stage for the postemergence treatment. Treated plants and untreated controls were maintained in a greenhouse for 10 days, after which time all treated plants were compared to untreated controls and visually evaluated for injury. Plant response ratings, summarized in Table A, are based on a 0 to 100 scale where 0 is no effect and 100 is complete control. A dash (-) response means no test result.

[5] = system: palmer (palmer amaranth, palmer pigweed, Amaranthus palmeri); assay: as above; details: 10 days
Text: as §2, §3

[6] = system: ryegrass, Italian (italian ryegrass, Lolium multiflorum); assay: as above; details: 10 days
Text: as §2, §3

[7] = system: barnyardgrass (Echinochloa crus-galli); assay: as above; details: 10 days
Text: as §2, §3

[8] = system: oat, wild (wild oat, Avena fatua); assay: as above; details: 10 days
Text: as §2, §3

[9] = system: horseweed (Erigeron canadensis); assay: as above; details: 10 days
Text: as §2, §3

[10] = system: blackgrass (Alopecurus myosuroides); assay: as above; details: 10 days
Text: as §2, §3

[11] = system: green foxtail (Setaria viridis); assay: as above; details: 10 days
Text: as §2, §3

kochia (Bassia scoparia) [12] = assay: as above; details: 10 days
Text: as §2, §3

[13] = system: wheat (Triticum aestivum); assay: as above; details: 10 days
Text: as §2, §3

[14] = system: ragweed (common ragweed, Ambrosia artemisiifolia); assay: as above; details: 10 days
Text: as §2, §3

soybean (Glycine max) [15] = assay: as above; details: 10 days
Text: as §2, §3

corn (Zea mays) [16] = assay: Test A preemergence soil spray, visual injury rating 0-100; details: 10 days, 0 = no effect, 100 = complete control
Text: as §2, §3

[17] = system: palmer (palmer amaranth, palmer pigweed, Amaranthus palmeri); assay: as above; details: 10 days, 0 = no effect, 100 = complete control
Text: as §2, §3

[18] = system: ryegrass, Italian (italian ryegrass, Lolium multiflorum); assay: as above; details: 10 days, 0 = no effect, 100 = complete control
Text: as §2, §3

[19] = system: barnyardgrass (Echinochloa crus-galli); assay: as above; details: 10 days, 0 = no effect, 100 = complete control
Text: as §2, §3

[20] = system: oat, wild (wild oat, Avena fatua); assay: as above; details: 10 days, 0 = no effect, 100 = complete control
Text: as §2, §3

[21] = system: blackgrass (Alopecurus myosuroides); assay: as above; details: 10 days, 0 = no effect, 100 = complete control
Text: as §2, §3

[22] = system: green foxtail (Setaria viridis); assay: as above; details: 10 days, 0 = no effect, 100 = complete control
Text: as §2, §3

kochia (Bassia scoparia) [23] = assay: as above; details: 10 days, 0 = no effect, 100 = complete control
Text: as §2, §3

[24] = system: wheat (Triticum aestivum); assay: as above; details: 10 days, 0 = no effect, 100 = complete control
Text: as §2, §3

[25] = system: ragweed (common ragweed, Ambrosia artemisiifolia); assay: as above; details: 10 days, 0 = no effect, 100 = complete control
Text: as §2, §3

soybean (Glycine max) [26] = assay: as above; details: 10 days, 0 = no effect, 100 = complete control
Text: as §2, §3

[27] = 31 g ai/ha, postemergence, 0 = no effect, 100 = complete control
[28] = Postemergence, 125 g ai/ha, 0 is no effect, 100 is complete control

COC(=O)C1=CC[C@H](NC(=O)C2(C)CN(c3cc(F)cc(F)c3)C(=O)O2)C1 (mixture of isomers) [Compound 37, Methyl (4S)-4-[[[3-(3,5-difluorophenyl)-5-methyl-2-oxo-5-oxazolidinyl]carbonyl]amino]-1-cyclopentene-1-carboxylate]
Plant response rating, Barnyardgrass (0 to 100 scale, 0 is no effect and 100 is complete control) [1]: 75 | Plant response rating, Rice (0 to 100 scale, 0 is no effect and 100 is complete control) (rice (Oryza sativa)): 65 | Plant response rating, Ducksalad (0 to 100 scale, 0 is no effect and 100 is complete control) [2]: 95 | Plant response rating, Sedge, Umbrella (0 to 100 scale, 0 is no effect and 100 is complete control) [3]: 100 | Corn plant response rating (0-100) (corn (Zea mays) [4]; [27]): 100 | Corn plant response rating (0 to 100 scale) (corn (Zea mays) [4]; [28]): 100 | Amaranth, Palmer plant response rating (0-100) [5, 27]: 70 | Amaranth, Palmer / Pigweed, Palmer plant response rating (0 to 100 scale) [5, 28]: 90 | Ryegrass, Italian plant response rating (0-100) [6, 27]: 80 | Ryegrass, Italian plant response rating (0 to 100 scale) [6, 28]: 90 | Barnyardgrass plant response rating (0-100) [7, 27]: 100 | Barnyardgrass plant response rating (0 to 100 scale) [7, 28]: 100 | Oat, Wild plant response rating (0-100) [8, 27]: 90 | Oat, Wild plant response rating (0 to 100 scale) [8, 28]: 90 | Horseweed plant response rating (0-100) [9, 27]: 10 | Horseweed plant response rating (0 to 100 scale) [9, 28]: 70 | Blackgrass plant response rating (0-100) [10, 27]: 80 | Blackgrass plant response rating (0 to 100 scale) [10, 28]: 90 | Foxtail, Green plant response rating (0-100) [11, 27]: 90 | Foxtail, Green plant response rating (0 to 100 scale) [11, 28]: 90 | Kochia plant response rating (0-100) (kochia (Bassia scoparia) [12]; [27]): 80 | Kochia plant response rating (0 to 100 scale) (kochia (Bassia scoparia) [12]; [28]): 80 | Wheat plant response rating (0-100) [13, 27]: 90 | Wheat plant response rating (0 to 100 scale) [13, 28]: 90 | Ragweed plant response rating (0-100) [14, 27]: 20 | Ragweed plant response rating (0 to 100 scale) [14, 28]: 50 | Soybean plant response rating (0-100) (soybean (Glycine max) [15]; [27]): 70 | Soybean plant response rating (0 to 100 scale) (soybean (Glycine max) [15]; [28]): 80 | Corn plant response rating (0-100) (corn (Zea mays) [16]; 31 g ai/ha): 10 | Corn plant response rating (0 to 100 scale) (corn (Zea mays) [16]; 125 g ai/ha): 80 | Amaranth, Palmer plant response rating (0-100) ([17]; 31 g ai/ha): 10 | Amaranth, Palmer plant response rating (0 to 100 scale) ([17]; 125 g ai/ha): 80 | Ryegrass, Italian plant response rating (0-100) ([18]; 31 g ai/ha): 70 | Ryegrass, Italian plant response rating (0 to 100 scale) ([18]; 125 g ai/ha): 90 | Barnyardgrass plant response rating (0-100) ([19]; 31 g ai/ha): 30 | Barnyardgrass plant response rating (0 to 100 scale) ([19]; 125 g ai/ha): 90 | Oat, Wild plant response rating (0-100) ([20]; 31 g ai/ha): 20 | Oat, Wild plant response rating (0 to 100 scale) ([20]; 125 g ai/ha): 60 | Blackgrass plant response rating (0-100) ([21]; 31 g ai/ha): 0 | Blackgrass plant response rating (0 to 100 scale) ([21]; 125 g ai/ha): 20 | Foxtail, Green plant response rating (0-100) ([22]; 31 g ai/ha): 0 | Foxtail, Green plant response rating (0 to 100 scale) ([22]; 125 g ai/ha): 90 | Kochia plant response rating (0-100) (kochia (Bassia scoparia) [23]; 31 g ai/ha): 0 | Kochia plant response rating (0 to 100 scale) (kochia (Bassia scoparia) [23]; 125 g ai/ha): 20 | Wheat plant response rating (0-100) ([24]; 31 g ai/ha): 40 | Wheat plant response rating (0 to 100 scale) ([24]; 125 g ai/ha): 80 | Ragweed plant response rating (0-100) ([25]; 31 g ai/ha): 60 | Ragweed plant response rating (0 to 100 scale) ([25]; 125 g ai/ha): 0 | Soybean plant response rating (0-100) (soybean (Glycine max) [26]; 31 g ai/ha): 10 | Soybean plant response rating (0 to 100 scale) (soybean (Glycine max) [26]; 125 g ai/ha): 70
